ChEMBL document CHEMBL1201862, “PubChem BioAssay data set” (2004)
Calls of active or inactive are those of the source.

What was measured:
[1] = system: HEK293; assay: cells; details: Homo sapiens
[2] = system: HEK293; assay: cells; details: Homo sapiens; remark: listed apart in the source
[3] = Luminescence Cell-Based Dose Retest to Confirm Inhibitors of Cancer Stem Cells. [Related pubchem assays (depositor defined):AID2717, AID2721]; assay type: functional; details: Homo sapiens
[4] = target: T1, Aurora kinase A (Homo sapiens, UniProt O14965); assay type: functional;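 further: value from the Navigating the Kinome kinase panel profiling, panel entry STK6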
T1 sequence (O14965 whole entry): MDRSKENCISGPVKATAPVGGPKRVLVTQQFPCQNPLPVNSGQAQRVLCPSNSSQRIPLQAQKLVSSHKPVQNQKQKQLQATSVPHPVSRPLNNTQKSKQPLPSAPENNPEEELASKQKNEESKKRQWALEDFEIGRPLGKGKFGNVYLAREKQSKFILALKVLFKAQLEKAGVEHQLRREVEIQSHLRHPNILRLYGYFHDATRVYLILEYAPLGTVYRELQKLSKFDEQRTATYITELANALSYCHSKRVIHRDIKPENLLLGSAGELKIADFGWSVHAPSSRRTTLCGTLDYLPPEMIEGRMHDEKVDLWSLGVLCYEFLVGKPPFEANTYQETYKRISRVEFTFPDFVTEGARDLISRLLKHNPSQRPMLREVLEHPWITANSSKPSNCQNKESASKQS

[5] = target: Aurora kinase B (Homo sapiens, UniProt Q96GD4); assay type: functional
Chain of Aurora kinase B (Q96GD4 whole entry): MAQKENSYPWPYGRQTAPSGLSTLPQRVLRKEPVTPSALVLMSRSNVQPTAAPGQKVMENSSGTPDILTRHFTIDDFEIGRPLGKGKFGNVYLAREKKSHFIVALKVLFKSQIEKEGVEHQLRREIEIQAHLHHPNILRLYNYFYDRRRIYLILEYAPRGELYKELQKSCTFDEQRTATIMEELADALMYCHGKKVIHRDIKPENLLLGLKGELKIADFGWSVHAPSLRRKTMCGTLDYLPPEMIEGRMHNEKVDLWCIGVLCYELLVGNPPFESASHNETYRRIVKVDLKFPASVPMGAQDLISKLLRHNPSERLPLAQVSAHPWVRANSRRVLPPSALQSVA

[6] = target: Cytochrome P450 3A4 (Homo sapiens, UniProt P08684);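 further: CYP3A4 tested as one member of a cytochrome P450 panel screen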
Chain of Cytochrome P450 3A4 (P08684 whole entry): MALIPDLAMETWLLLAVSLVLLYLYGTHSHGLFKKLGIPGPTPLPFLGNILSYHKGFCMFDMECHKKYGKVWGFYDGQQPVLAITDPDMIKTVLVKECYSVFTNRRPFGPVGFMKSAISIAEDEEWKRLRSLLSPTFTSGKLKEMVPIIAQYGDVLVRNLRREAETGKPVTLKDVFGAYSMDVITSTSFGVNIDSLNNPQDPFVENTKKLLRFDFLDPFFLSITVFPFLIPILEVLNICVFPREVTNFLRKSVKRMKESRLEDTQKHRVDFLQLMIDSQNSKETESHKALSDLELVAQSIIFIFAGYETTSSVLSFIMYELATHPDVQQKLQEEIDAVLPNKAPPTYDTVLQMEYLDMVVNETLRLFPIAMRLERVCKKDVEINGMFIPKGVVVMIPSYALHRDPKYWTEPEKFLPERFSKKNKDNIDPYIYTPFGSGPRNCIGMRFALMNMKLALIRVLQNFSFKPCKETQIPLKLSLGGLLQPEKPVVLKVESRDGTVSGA

[7] = Trypanosoma cruzi growth suppression in host cells – NIH3T3 host cells, beta-gal luminescence, confirmation (AID 2044); assay type: functional, cell-based;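 further: intracellular parasites grown in NIH/3T3 mouse fibroblasts as host cells; luminescent beta-galactosidase reporter signal from transgenic T. cruzi replicating inside host cells; inhibitors lower the luminescence signal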
[8] = NIH3T3 cell viability loss – ATP luminescence, mouse fibroblasts, counter-screen, dose response (AID 2010); assay type: functional, cell-based;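 further: cells exposed to compound for about 90 hours before reading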
[9] = target: T2, Exodeoxyribonuclease V (Escherichia coli (strain K12), UniProt P04993+P07648+P08394); assay: RecBCD inhibition via phage-restricted bacterial growth – absorbance, V66 E. coli, mutant T4 phage, counter-screen for AddAB inhibitor project, dose response (AID 492957); assay type: functional, cell-based, Escherichia coli str. K-12 substr. MG1655
T2 sequence (P04993 whole entry): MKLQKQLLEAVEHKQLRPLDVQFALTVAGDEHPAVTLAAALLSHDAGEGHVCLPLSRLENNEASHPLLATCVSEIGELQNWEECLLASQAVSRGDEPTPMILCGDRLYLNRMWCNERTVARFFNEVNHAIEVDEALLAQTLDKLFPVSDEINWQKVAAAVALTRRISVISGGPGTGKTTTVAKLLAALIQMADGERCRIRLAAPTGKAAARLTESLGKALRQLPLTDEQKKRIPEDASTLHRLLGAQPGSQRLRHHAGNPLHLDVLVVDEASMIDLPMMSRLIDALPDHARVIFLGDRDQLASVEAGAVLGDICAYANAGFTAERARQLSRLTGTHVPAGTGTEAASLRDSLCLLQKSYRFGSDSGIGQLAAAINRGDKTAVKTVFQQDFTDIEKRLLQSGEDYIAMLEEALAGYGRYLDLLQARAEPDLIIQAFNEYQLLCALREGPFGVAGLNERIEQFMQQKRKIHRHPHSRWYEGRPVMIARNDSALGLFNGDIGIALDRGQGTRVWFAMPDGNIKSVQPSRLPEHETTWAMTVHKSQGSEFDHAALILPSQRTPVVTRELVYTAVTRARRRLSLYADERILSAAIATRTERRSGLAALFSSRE
T2 sequence (P07648 whole entry): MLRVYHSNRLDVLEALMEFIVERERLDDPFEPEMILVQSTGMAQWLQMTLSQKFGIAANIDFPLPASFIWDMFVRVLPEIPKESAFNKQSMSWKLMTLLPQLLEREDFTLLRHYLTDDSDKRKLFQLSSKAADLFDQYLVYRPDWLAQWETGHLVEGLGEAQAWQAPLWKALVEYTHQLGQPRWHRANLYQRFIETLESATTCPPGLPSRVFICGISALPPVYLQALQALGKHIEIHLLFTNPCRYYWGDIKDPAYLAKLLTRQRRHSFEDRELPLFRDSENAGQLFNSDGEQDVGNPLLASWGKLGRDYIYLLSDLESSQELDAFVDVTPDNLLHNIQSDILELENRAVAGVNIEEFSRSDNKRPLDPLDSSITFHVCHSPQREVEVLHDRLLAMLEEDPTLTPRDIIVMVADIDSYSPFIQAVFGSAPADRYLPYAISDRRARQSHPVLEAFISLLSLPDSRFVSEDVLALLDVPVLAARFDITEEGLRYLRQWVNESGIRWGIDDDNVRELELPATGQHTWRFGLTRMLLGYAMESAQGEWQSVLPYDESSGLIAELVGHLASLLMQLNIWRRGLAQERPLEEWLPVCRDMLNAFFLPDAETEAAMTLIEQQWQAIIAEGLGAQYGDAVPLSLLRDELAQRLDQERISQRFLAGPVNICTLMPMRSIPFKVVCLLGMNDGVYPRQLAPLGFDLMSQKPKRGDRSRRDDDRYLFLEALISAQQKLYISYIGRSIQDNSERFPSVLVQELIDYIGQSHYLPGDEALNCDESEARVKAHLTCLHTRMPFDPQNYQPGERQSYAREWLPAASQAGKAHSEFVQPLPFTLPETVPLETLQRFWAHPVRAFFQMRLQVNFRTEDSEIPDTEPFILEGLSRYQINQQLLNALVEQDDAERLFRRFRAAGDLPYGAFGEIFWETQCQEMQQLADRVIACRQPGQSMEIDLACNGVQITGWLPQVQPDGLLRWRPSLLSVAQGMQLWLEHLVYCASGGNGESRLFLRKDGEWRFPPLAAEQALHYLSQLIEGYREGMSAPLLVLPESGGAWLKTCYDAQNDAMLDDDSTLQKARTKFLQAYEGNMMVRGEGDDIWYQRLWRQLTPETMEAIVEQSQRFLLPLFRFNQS
T2 sequence (P08394 whole entry): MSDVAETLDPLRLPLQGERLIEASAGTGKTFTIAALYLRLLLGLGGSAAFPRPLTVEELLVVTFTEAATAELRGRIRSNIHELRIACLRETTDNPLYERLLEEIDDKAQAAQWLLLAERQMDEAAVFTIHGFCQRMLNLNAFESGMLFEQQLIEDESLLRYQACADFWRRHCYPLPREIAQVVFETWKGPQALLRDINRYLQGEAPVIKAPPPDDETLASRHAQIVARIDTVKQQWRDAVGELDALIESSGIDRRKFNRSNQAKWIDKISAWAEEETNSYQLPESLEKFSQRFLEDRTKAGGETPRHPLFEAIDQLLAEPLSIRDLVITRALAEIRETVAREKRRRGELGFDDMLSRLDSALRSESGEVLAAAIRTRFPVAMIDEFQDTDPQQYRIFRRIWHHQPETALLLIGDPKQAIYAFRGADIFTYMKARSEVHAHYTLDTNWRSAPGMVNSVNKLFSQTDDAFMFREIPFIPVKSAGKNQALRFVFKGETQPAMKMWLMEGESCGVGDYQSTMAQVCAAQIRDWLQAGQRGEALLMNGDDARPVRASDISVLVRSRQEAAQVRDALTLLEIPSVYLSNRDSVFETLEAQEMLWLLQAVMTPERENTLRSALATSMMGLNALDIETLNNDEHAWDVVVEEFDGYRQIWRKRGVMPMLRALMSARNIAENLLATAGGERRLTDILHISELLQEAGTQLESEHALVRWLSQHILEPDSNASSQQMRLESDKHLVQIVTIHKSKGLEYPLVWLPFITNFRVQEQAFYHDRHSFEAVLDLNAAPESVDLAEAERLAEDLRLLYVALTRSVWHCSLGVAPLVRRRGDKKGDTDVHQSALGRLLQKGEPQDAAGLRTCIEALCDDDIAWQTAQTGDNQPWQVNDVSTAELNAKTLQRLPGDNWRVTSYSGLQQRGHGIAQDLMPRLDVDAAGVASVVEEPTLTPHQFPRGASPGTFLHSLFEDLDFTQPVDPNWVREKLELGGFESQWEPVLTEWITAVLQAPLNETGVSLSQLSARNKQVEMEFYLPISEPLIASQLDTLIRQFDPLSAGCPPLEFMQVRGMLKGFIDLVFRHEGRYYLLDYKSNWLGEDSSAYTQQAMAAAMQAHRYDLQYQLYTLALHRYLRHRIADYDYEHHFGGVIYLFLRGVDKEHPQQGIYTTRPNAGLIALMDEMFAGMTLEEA

[10] = THP-1 cell cytotoxicity, dose response, cytotoxicity control for non-replicating M. tuberculosis project (AID 489025); assay type: functional
[11] = Vero E6 cell cytotoxicity, dose response, cytotoxicity control for non-replicating M. tuberculosis project, secondary assay (AID 492998); assay type: functional, VeroE6; details: Vero C1008
[12] = Counterscreen for AddAB inhibitors: absorbance-based bacterial cell-based high throughput dose response assay for inhibitors of bacterial viability. [Related pubchem assays (depositor defined):AID435030, AID449728, AID449731, AID488942, AID488955, AID488956]; assay type: functional
[13] = cells; assay type: functional
[14] = activation of miR-122 Renilla sensor silencing – cell-based, Huh7 psiCHECK-miR122, Renilla luciferase, cherry-picked, dose response (AID 651956); assay type: functional;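 further: huh7 hepatoma cells stably carrying a psiCHECK-2 miR-122 sensor plasmid; renilla luciferase signal reporting endogenous miR-122 activity after 48 h compound exposure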
[15] = intracellular Trypanosoma cruzi inhibitors in host cells – cell-based, plate reader, cherry-pick samples, set 3, dose response (AID 651818); assay type: functional;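 further: compounds incubated with infected cells for about four days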
[16] = target: Nonstructural protein 1 (Influenza A virus, UniProt Q194T2); assay type: functional, Influenza A virus (A/California/07/2009(H1N1))
Chain of Nonstructural protein 1 (Q194T2 whole entry): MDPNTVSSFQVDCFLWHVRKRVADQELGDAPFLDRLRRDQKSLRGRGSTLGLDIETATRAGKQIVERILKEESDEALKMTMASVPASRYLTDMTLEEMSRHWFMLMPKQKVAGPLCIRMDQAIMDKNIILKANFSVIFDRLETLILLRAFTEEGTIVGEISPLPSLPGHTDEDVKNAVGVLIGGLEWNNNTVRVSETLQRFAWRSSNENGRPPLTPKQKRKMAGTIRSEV

[17] = NIH-3T3 fibroblast cytotoxicity, dose response, cytotoxicity control, cell-based, fluorescence, Alamar Blue, secondary assay (AID 2327); assay type: functional;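 further: NIH-3T3 mouse fibroblasts cultured with fluconazole at 8 µg/mL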
[18] = fluconazole-exposed Candida albicans growth modulators – fluorescence, retest, confirmation (AID 2467); assay type: functional, cell-based
[19] = system: CHO; assay: CHO cell viability loss, potency – luminescence, cytotoxicity control for TLR9-MyD88 binding inhibitor project, dose response (AID 588339); assay type: functional, cell-based, hamster; details: Cricetulus griseus;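 further: CHO cells stably coexpressing TLR9 and MyD88 fusions from primary screen; compound exposure lasted 48 hours before viability readout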
[20] = target: Beta Lactamase (Pseudomonas aeruginosa, UniProt Q932Y6); assay: BLA reporter interference, concentration series – BLA reporter cells, FRET fluorescence, artefact control for TLR9-MyD88 binding inhibitor project, dose response (AID 588341); assay type: cell-based;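 further: cell based assay in CHO-K1 cells stably expressing beta-lactamase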
Chain of Beta Lactamase (Q932Y6 whole entry): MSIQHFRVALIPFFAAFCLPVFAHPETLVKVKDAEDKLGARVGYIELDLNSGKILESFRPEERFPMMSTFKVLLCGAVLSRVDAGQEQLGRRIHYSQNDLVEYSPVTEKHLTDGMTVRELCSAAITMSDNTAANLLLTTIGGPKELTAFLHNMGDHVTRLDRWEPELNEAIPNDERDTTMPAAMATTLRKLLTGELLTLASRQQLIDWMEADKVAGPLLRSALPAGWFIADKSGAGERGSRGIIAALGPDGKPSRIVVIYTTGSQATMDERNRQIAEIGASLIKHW

[21] = target: Cytochrome P450 2C19 (Homo sapiens, UniProt P33261); assay: Cytochrome panel assay with activity outcomes. Panel member name: p450-cyp2c19 Compounds with AC50 equal or less than 10 uM are considered active; assay type: functional; details: read-out: AC50
Chain of Cytochrome P450 2C19 (P33261 whole entry): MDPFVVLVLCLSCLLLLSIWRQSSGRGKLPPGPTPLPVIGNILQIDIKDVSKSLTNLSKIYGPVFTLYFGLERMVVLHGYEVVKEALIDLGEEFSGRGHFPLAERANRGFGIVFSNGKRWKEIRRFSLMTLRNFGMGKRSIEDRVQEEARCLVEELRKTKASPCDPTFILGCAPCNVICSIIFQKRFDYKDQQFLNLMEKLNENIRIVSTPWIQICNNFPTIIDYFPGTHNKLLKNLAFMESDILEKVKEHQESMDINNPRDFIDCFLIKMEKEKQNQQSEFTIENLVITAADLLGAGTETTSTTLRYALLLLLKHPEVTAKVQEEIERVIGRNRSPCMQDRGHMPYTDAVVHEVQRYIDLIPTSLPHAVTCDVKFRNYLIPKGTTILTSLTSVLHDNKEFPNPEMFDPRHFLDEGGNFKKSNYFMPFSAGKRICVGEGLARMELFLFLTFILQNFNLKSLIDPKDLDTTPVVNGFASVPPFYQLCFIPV

[22] = target: Cytochrome P450 2C9 (Homo sapiens, UniProt P11712)
Chain of Cytochrome P450 2C9 (P11712 whole entry): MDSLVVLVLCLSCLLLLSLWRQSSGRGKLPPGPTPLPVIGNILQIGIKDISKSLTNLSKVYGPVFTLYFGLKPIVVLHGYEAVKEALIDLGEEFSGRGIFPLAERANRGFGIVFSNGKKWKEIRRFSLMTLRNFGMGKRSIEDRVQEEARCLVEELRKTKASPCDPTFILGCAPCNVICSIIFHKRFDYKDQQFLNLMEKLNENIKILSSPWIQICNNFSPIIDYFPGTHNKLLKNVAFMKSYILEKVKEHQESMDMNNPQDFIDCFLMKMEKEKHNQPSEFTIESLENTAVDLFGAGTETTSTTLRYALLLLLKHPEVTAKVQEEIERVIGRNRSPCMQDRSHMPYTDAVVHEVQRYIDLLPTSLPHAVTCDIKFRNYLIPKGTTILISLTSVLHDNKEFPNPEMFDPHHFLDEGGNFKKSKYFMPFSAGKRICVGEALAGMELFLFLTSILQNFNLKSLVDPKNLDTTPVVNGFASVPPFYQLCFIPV

[23] = viability of uninfected HEp-2 cells – cell-based, HTS, cytotoxicity control for RSV inhibitor project, dose response (AID 2410); assay type: functional; details: human respiratory syncytial virus
[24] = system: Streptococcus sp. 'group A'; assay: Streptococcus pyogenes SK(-)GAS viability under kanamycin – luminescence, BacTiterGlo, confirmation, counter-screen for streptokinase expression inhibitor project, dose response (AID 1900); assay type: functional, organism-based
[25] = system: Streptococcus; assay: GAS UMAA2166 growth inhibition – luminescence, BacTiterGlo, counter-screen for streptokinase expression inhibitor project, dose response (AID 1915); assay type: functional, organism-based;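 further: potency for reduction of bacterial viability or growth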

## Cc1cccc(/C=N/NC(=O)c2cccc([N+](=O)[O-])c2)n1
[1]
  EC50: > 59.6 µM (inactive)
[2]
  EC50: > 59.6 µM (inactive)

## Cc1ccsc1/C=C/c1ccc2cccc(O)c2n1
[3]
  AC50: 6.83 µM (active)
[1]
  EC50: > 59.7 µM (inactive)
[2]
  EC50: > 59.7 µM (inactive)

## COCCOC1CCC(n2nc(-c3ccc(Nc4nc5cc(Cl)ccc5o4)c(F)c3)c3c(N)ncnc32)CC1 (stereo unspecified)
[4]
  Ki: 0.0398 µM (active)
[5]
  Ki: 0.01 µM (active)

## O=C(c1cccc(F)c1)N1CCC2(CC1)CN(c1ncccn1)C2
[6]
  AC50: inconclusive

## CCCn1c(NC(=O)c2ccc([N+](=O)[O-])o2)nc2ccccc21
[7]
  EC50: 0.128 µM (active)
[8]
  EC50: > 30 µM (not active)
[9]
  IC50: > 118 µM (inactive)
[10]
  CC50: 17.1 µM (active)
[11]
  CC50: 13.3 µM (active)
[12]
  IC50: > 118 µM (inactive)
[13]
  IC50: 1.51 µM (active)

## C[C@H]1CN([C@@H](C)CO)C(=O)c2cc(-c3ccc(C#N)cc3)cnc2O[C@H]1CN(C)C(=O)Nc1ccc(C(F)(F)F)cc1
[14]
  AC50: 7.44 µM (active)

## C[C@@H]1CN([C@@H](C)CO)C(=O)Cc2cc(NS(=O)(=O)c3ccccc3)ccc2O[C@@H]1CN(C)S(=O)(=O)c1ccc(Cl)cc1
[15]
  AC50: 6.08 µM (active)

## COc1ccccc1-c1ccc2c(c1)C(C)(Cc1cccc(C#N)c1)C(=O)N2 (stereo unspecified)
[1]
  EC50: > 59.6 µM (inactive)
[2]
  EC50: > 59.6 µM (inactive)

## CN(C)c1ccc(N=Nc2ccccc2C(=O)OCC(=O)NC2CCCC2)cc1
[16]
  IC50: 20.4 µM (active)

## C/C(=N\Nc1ccc([N+](=O)[O-])cc1)c1ccc2c(c1)OCO2
[17]
  EC50: > 150 µM (inactive)
[18]
  EC50: > 38 µM (not active)
[19]
  IC50: > 49.7 µM (inactive)
[20]
  IC50: 12.5 µM (inactive)

## C[C@H]1CN([C@@H](C)CO)C(=O)Cc2cc(N(C)C)ccc2O[C@@H]1CN(C)Cc1ccc(C(=O)Nc2ccccc2N)cc1
[15]
  AC50: 0.794 µM (active)

## COc1ccc(CN2CCC2(C)C(=O)Nc2cccc(NS(C)(=O)=O)c2)c2ccccc12 (stereo unspecified)
[1]
  EC50: > 59.7 µM (inactive)
[2]
  EC50: > 59.7 µM (inactive)

## C[C@@H]1CCCCO[C@@H](CN(C)Cc2ccc(Cl)c(Cl)c2)[C@@H](C)CN([C@H](C)CO)C(=O)c2cc(NC(=O)c3ccccc3)ccc2O1
[15]
  AC50: 6.25 µM (active)

## O=C(Cc1ccccc1)Nc1nc(=O)c2ccccc2s1
[21]
  AC50: 2.82 µM (inconclusive)
[22]
  AC50: 3.55 µM (inconclusive)
[6]
  AC50: inconclusive

## Cn1c2ccccc2c(=O)c2ccc(C#Cc3ccc(N)cc3)cc21
[23]
  CC50: > 50 µM (active)
[24]
  EC50: 1.92 µM (active)
[25]
  EC50: 2.12 µM (active)
[19]
  IC50: > 49.8 µM (inactive)
[20]
  IC50: 5.26 µM (active)
